Where two headings read alike, the source gives them in different places.
Assays:
[1] = tested on: acute cerebral ischemia-reperfusion injury in rats; format: in vivo; conditions: for Scope of cerebral infarction (%): Edaravone 6.0 mg/kg i.v., TTC staining 24 hours after ischemia, Mean ± SEM, model group 42.53 ± 3.27
[2] = tested on: primary purified microglia; test: LPS-induced over activation of primary purified microglia; format: cell-based; conditions: LPS-stimulated primary microglia; MTT, cellular immunochemistry
Source text: Microglia plays an important role in the inflammatory process of the central nervous system. The moderate activation of microglia can protect neurons, but the over activated microglia will release a large number of neurotoxic factors, such as […], which will lead to the occurrence of neurodegenerative diseases. Lipopolysaccharide (LPS) can activate microglia, which leads to the over activation of microglia and the damage of neurons. A5 was used to observe the effect of LPS on the over activation of microglia.
During the experiment, LPS was used to stimulate the primary purified microglia as the control group, and A5 protein was added as the experimental group. For the above treatment, MTT method was used to detect cell viability, and cellular immunochemistry method was used to observe cell morphological changes. […] Therefore, A5 protein can be used to inhibit the over activation of immune cells in the brain, such as microglia.

primary cortical neurons = test: Oxygen glucose deprivation (OGD) model with primary cortical neurons; format: cell-based; conditions: 8 hours anoxic culture, A5 in DMEM during 24 hours reoxygenation; CCK-8, flow cytometry
Description: Oxygen glucose deprivation (OGD) model is a stimulation model simulating ischemia/hypoxia at the cell level. By changing the cell culture conditions, such as putting the cells into the hypoxia box or into the sugar free medium, the damage of cells under the condition of ischemia/hypoxia is simulated.
OGD model was established with primary cortical neurons. The cells in the culture plate were washed twice with PBS, and then the glucose-free DMEM exchanged with 95% N2+5% CO2 for 30 minutes was added. Then the cells were quickly placed in 37° C., 94% N2+1% O2+5% CO2 hypoxia incubator. After 8 hours of anoxic culture, the corresponding DMEM medium (i.e. DMEM medium containing A5) was added, and then put the plate into a 37° C. 5% CO2 cell incubator for 24 hours of reoxygenation. After 24 hours of culture, morphological changes were observed under inverted microscope, cell survival rate was detected by CCK-8 colorimetry and apoptosis rate was detected by flow cytometry. At the same time, the treatment group of normoxia and normal glucose was set as the control group.

cortical neurons = test: NMDA-induced excitotoxic damage on cortical neurons; format: cell-based, SD rats; conditions: A5 pretreatment then NMDA, compared with NMDA group; trypan blue, TUNEL, immunofluorescence
Source text: Example 5 studied the neuroprotective effect of A5 protein on NMDA (N-methyl-D-aspartate)—induced excitotoxic damage on cortical neurons in rats. NMDA can activate NMDA receptor to increase Ca^2+ content in brain tissue, and NOS is activated in a large amount, which leads to a series of physiological or pathological changes such as the synthesis of a large number of NO, causing damage to neurons in brain. In order to observe the neuroprotective effect of A5 protein on neuronal damage induced by excitotoxicity, the neuron was pretreated with A5 protein.
In the experiment, 17 day embryonic SD rats were selected and the cortical neurons were cultured. Then the neurons were divided into control group, NMDA group and A5 pretreatment group. The neurons in NMDA group were added with NMDA for exposure, and the neurons in A5 pretreatment group were incubated with A5 protein for a period of time, and then added with NMDA. For different treatment groups, trypan blue staining was used to evaluate cell viability, TUNEL staining was used to detect apoptosis cells and immunofluorescence cytochemistry was used to detect neuron morphology.

[3] = tested on: co-cultured spontaneously transformed endothelial cell line and purified rat astrocytes; test: blood-brain barrier (BBB) model in vitro; format: cell-based; conditions: BBB model injured after stimulation, then treated with A5 protein
Source text: Blood brain barrier is composed of three components: brain microvascular endothelial cells, astrocytes and basement membrane. The damage of blood-brain barrier is one of the important pathology of stroke.
In the experiment, the blood-brain barrier model was established by co-culturing spontaneously transformed endothelial cell line and purified rat astrocytes. The blood-brain barrier (BBB) model in vitro was injured after stimulation, and then treated with A5 protein.

SD rats = test: Toxicity of A5 protein in single intravenous injection in SD rats; format: in vivo
Description: In this study, A5 protein was injected intravenously once in SD rats to observe the acute toxicity, severity and main toxic target organs. The dosage was 0 (blank adjuvant), 1000, 3000 and 9000 μg/kg respectively. After the intravenous injection, the animal's posture, gait, reaction, nerve activity, appetite, fur, eyes, ears, mouth, nose, limbs, breath, feces and other clinical symptoms were observed continuously. After that, the recovery from toxic reaction was observed continuously until the 14th day after administration. The animals were dissected and examined for macropathology 15 days after administration. […] The maximum-tolerated dose (MTD) of single intravenous injection of A5 protein was more than […].

cynomolgus monkeys = test: Toxicity of A5 protein in single intravenous injection in cynomolgus monkeys; format: in vivo
Description: A single intravenous injection of A5 protein was used to observe the acute toxicity and its severity and main toxic target organs in cynomolgus monkeys. The dosage was 0 (blank adjuvant), 500, 1500 and 4500 μg/kg respectively. After the single intravenous injection, observe the clinical symptoms of the animals (including feces, appearance, respiration, nerve reaction, activity status, etc.) until the 15th day after the administration. After administration, the food intake was measured once a day and the body weight was measured once a week. The body temperature, blood pressure and electrocardiograph (ECG) of the animals were measured before and after administration on the day of administration, and again on the 1st, 7th and 15th day of administration. Hematology (including blood coagulation) and serum biochemical examination were carried out for all animals on the 1st, 7th and 15th day after administration, and urine examination was carried out on the 14th day after administration. On the 15th day after administration, the animals were dissected for macropathological examination, and if necessary, for histopathological examination. […] In this experiment, the maximum-tolerated dose (MTD) of cynomolgus monkeys was more than […].

[4] = tested on: rat model of focal cerebral ischemia; test: rat model of focal cerebral ischemia established by light irradiation; format: in vivo; conditions: annexin A5 injected into the caudal vein
Description: (§1) It was confirmed by the rat model of ischemia-reperfusion that the annexin A5 could reduce the area of cerebral infarction, improve the symptoms of neurological deficits and promote long-term motor recovery in rats. For example, a rat model of focal cerebral ischemia was established by light irradiation, and then annexin A5 was injected into the caudal vein. […] Take another example, the rat model of hemorrhagic stroke was established by intracerebral injection of autologous arterial blood, and then the rats were injected with annexin A5 injection via caudal vein.

[5] = tested on: rat model of hemorrhagic stroke; test: rat model of hemorrhagic stroke by intracerebral injection of autologous arterial blood; format: in vivo; conditions: annexin A5 injection via caudal vein
Description: as §1

CC1=NN(c2ccccc2)C(=O)C1 [Edaravone]
Scope of cerebral infarction (%) [1]: 35.93 ± 3.94% | Scope of cerebral infarction (%) ([1]; listed as edaravone): trend of reducing

A5: recombinant human full-length annexin A5 expressed in E. coli, SEQ ID NO:1, 319 amino acids, N-terminal alanine not acetylated
bleeding risk ([1]; experimental group treated with annexin A5, MCAO rats): no bleeding risk | over activation of microglia induced by LPS [2]: inhibit the over activation of microglia induced by LPS | damage of neurons caused by oxygen glucose deprivation (primary cortical neurons): reduce the damage of neurons caused by oxygen glucose deprivation | damage of excitatory toxicity to neurons (cortical neurons): reduce the damage of excitatory toxicity to neurons | repair of damaged blood-brain barrier [3]: repair the damaged blood-brain barrier | macropathological examination of tissues and organs (SD rats; 15 days after administration): no abnormality was found | weight changes (SD rats; female and male animals in the administration group): normal | clinical symptoms (SD rats; single i.v. 1000, 3000 and 9000 μg/kg, observed to day 14): normal | prothrombin time (PT), activated partial thromboplastin time (APTT) and thrombin time (TT) (cynomolgus monkeys; 1st day and 15th day after administration): no significant change | clinical symptoms, injection site, body weight, food intake, body temperature, blood pressure, ECG, urinalysis, serum biochemical and pathological examination (cynomolgus monkeys; single i.v. 500, 1500 and 4500 μg/kg, to day 15): no significant changes | area of cerebral infarction [4]: decreased significantly | neurological deficit symptoms [4]: improved | area of cerebral infarction [5]: decreased | neurological deficit symptoms [5]: significantly improved

Reference: patent US11357823B2, “Method for treating cerebral stroke” (Suzhou Yabao Pharmaceutical R&D Co., Ltd., priority 2019, dated 2022)
